Data reported in patent US6677310B1, “Ring-expanded nucleosides and nucleotides” (Nabi, priority 1999, dated 2004).

How the values were obtained:
[1] = molecular target: T1, adenosine deaminase (Type IV) from bovine spleen (Bos taurus, UniProt P56658); experiment: Inhibition of adenosine deaminase (Example 9); type: biochemical; conditions: Lineweaver-Burk plot
T1 construct: adenosine deaminase (Type IV) from bovine spleen (a suspension in 3.2 M (NH4)2SO4, pH 6); from tissue; host or cells: bovine spleen
From the text: The concentration of inhibitor, the title compound, used for the present study ranged from 4.6×10^−5 to 9.2×10^−5 M. The enzyme concentration used for each of the assays was 0.0235 units/mL. As computed by the Lineweaver-Burk plot.

[2] = test system: HBV ribonucleic acids (RNA); experiment: HBV RNA levels in 2.2.15 cells (blot hybridization); type: cell-based, Hepatitis B virus; conditions: 10 μM, day 9, 2.2.15 cells
Experimental: Anti-HBV activity and the toxicity against confluent 2.2.15 cells were determined by the previously described procedure (Korba, B. E., et al. Antivir. Res., 19:55-70, 1992; Korba, B. E., et al. Antivir. Res., 15:217-228, 1991). Briefly, confluent cultures of HBV transfected 2.2.15 cells were maintained on either 96-well or 24-well flat-bottomed tissue culture plates in RPMI 1640 medium with 2% fetal bovine serum (FBS). The cells were treated with test compounds daily for nine consecutive days. The culture media were harvested on day 9 to quantify the amount of virion DNA. On day 10, the cells were lysed to quantify the amount of intracellular HBV replicative intermediates (RI). The quantification of virion DNA and the HBV RI were done by blot hybridization methods (Korba, B. E., et al. Antivir. Res., 19:55-70, 1992; Korba, B. E., et al. Antivir. Res., 15:217-228, 1991). Cellular toxicity against separate cultures of confluent 2.2.15 cells was measured after treatment with the compounds for nine days under identical culture conditions as those used for the antiviral assay (Korba, B. E., et al. Antivir. Res., 19:55-70, 1992). Uptake of neutral red dye by treated cells was compared with dye uptake by untreated control cells (Korba, B. E., et al. Antivir. Res., 19:55-70, 1992).
These compounds were evaluated for their ability to inhibit viral RNA synthesis in 2.2.15 cells. Since HBV uses host cellular RNA polymerase II during the transcription of viral RNA from the covalently closed circular HBV DNA during its replication, any effect on the synthesis of viral RNA by these compounds would mean interference with the cellular RNA polymerase which could lead to unacceptable cellular toxicity.

[3] = test system: HBV proteins (HBsAg, HBcAg, HBeAg); experiment: HBV protein levels in 2.2.15 cells (semi-quantitative EIA); type: cell-based, Hepatitis B virus; conditions: 10 μM, day 9, 2.2.15 cells
HIV = experiment: Antiviral test against HIV; type: cell-based
Experimental: (§1) These compounds were also tested for their effects on HIV (Weislow, O. , et al., J. Natl. Cancer Inst., 81:577-586, 1989), herpes simplex virus (HSV)-1, HSV-2, cytomegalovirus (CMV), Varicella Zoster virus (VZV) and Epstein-Barr virus (EBV) replication (National Institute of Allergy and Infectious Diseases (NIAID), NIH, Bethesda, Md.).

[4] = test system: herpes simplex virus (HSV)-1; experiment: Antiviral test against HSV-1; type: cell-based
Experimental: as §1

HSV-2 = experiment: Antiviral test against HSV-2; type: cell-based
Experimental: as §1

cytomegalovirus (CMV) = experiment: Antiviral test against CMV; type: cell-based
Experimental: as §1

[5] = test system: Varicella Zoster virus (VZV); experiment: Antiviral test against VZV; type: cell-based
Experimental: as §1

Epstein-Barr virus (EBV) = experiment: Antiviral test against EBV; type: cell-based
Experimental: as §1

HT29 = experiment: SRB anti-cancer assay, Colon Cancer; type: cell-based, human; conditions: 48 h; for CC50: read-out: LC50 (the source's name)
U251 = experiment: SRB anti-cancer assay, CNS Cancer; type: cell-based, human; conditions: 48 h; for CC50: read-out: LC50 (the source's name)
SK-MEL-5 = experiment: SRB anti-cancer assay, Melanoma; type: cell-based, human; conditions: SK-MEL-5 (Melanoma), 48 h; for CC50: read-out: LC50 (the source's name)
RXF 393 = experiment: SRB anti-cancer assay, Renal Cancer; type: cell-based, human; conditions: RXF 393 (Renal Cancer), 48 h; for CC50: read-out: LC50 (the source's name)
PC-3 = experiment: SRB anti-cancer assay, Prostate Cancer; type: cell-based, human; conditions: PC-3 (Prostate Cancer), 48 h
MCF7 = experiment: SRB anti-cancer assay, Breast Cancer; type: cell-based, human; conditions: 48 h; for CC50: read-out: LC50 (the source's name)
HS 578T = experiment: SRB anti-cancer assay, Breast Cancer; type: cell-based, human; conditions: HS 578T (Breast Cancer), 48 h; for CC50: read-out: LC50 (the source's name)
K-562 = experiment: SRB anti-cancer assay, Leukemia; type: cell-based, human; conditions: K-562 (Leukemia), 48 h; for CC50: read-out: LC50 (the source's name)
MOLT-4 = experiment: SRB anti-cancer assay, Leukemia; type: cell-based, human; conditions: MOLT-4 (Leukemia), 48 h; for CC50: read-out: LC50 (the source's name)

T1 sequence (P56658 whole entry): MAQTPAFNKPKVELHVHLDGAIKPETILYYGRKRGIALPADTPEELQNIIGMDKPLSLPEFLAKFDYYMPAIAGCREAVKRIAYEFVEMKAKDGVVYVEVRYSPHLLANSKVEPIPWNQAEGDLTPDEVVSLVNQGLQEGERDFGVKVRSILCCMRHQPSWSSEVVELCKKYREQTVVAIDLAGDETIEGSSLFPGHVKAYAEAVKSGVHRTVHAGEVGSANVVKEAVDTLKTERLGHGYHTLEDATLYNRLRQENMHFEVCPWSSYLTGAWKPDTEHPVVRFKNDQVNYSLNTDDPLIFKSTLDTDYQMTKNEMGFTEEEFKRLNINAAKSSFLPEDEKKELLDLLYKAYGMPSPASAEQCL

Compound	2.1 Kb RNA, percentage of control [2]	3.6 Kb RNA, percentage of control [2]	HBcAg, percentage of control [3]	HBeAg, percentage of control [3]	HBsAg, percentage of control [3]	antiviral activity against HIV (HIV)	antiviral activity against HSV-1 [4]	antiviral activity against HSV-2 (HSV-2)	antiviral activity against CMV (cytomegalovirus (CMV))	antiviral activity against VZV [5]	antiviral activity against EBV (Epstein-Barr virus (EBV))	GI50 (HT29)	TGI (HT29)	CC50 (HT29)	GI50 (U251)	TGI (U251)	CC50 (U251)	GI50 (SK-MEL-5)	TGI (SK-MEL-5)	CC50 (SK-MEL-5)	other results
N=c1nc(N)c2ncn([C@@H]3O[C@H](CO)[C@@H](O)[C@H]3O)c2c(N)n1 [Compound 14-2, 4,8-Diamino-6H-6-imino-1-β-D-ribofuranosylimidazo[4,5-e][1,3]diazepine]	96 ± 8%	103 ± 9%	109 ± 6%	8 ± 3 %	108 ± 18%	no antiviral activity	no antiviral activity	no antiviral activity	no antiviral activity	no antiviral activity	no antiviral activity	10.4 µM	35.7 µM	> 100 µM	20.1 µM	45 µM	> 100 µM	10.8 µM	23.5 µM	50.9 µM	mode of inhibition of adenosine deaminase [1]: competitive inhibitor; GI50 (RXF 393): 7.51 µM; TGI (RXF 393): 25.6 µM; CC50 (RXF 393): 74.2 µM; GI50 (PC-3): 16.6 µM; TGI (PC-3): 44.5 µM; CC50 (PC-3; read-out: LC50 (the source's name)): > 100 µM; GI50 (MCF7): 5.81 µM; TGI (MCF7): 22.3 µM; CC50 (MCF7): 63.4 µM; GI50 (HS 578T): 7.58 µM; TGI (HS 578T): 31.6 µM; CC50 (HS 578T): > 100 µM
N=c1nc(N)c2ncn([C@@H]3O[C@H](COC(=O)c4ccccc4)[C@@H](OC(=O)c4ccccc4)[C@H]3OC(=O)c3ccccc3)c2c(N)n1 [4,8-Diamino-6H-6-imino-1(2′,3′,5′-tri-O-benzoyl-β-D-ribofuranosyl)imidazo[4,5-e][1,3]diazepine]												2.58 µM	10.3 µM	42.3 µM				1.36 µM	2.64 µM	5.16 µM	GI50 (K-562): 2.74 µM; TGI (K-562): >100 µM; CC50 (K-562): > 100 µM; GI50 (MOLT-4): 2.31 µM; TGI (MOLT-4): 7.08 µM; CC50 (MOLT-4): > 100 µM; GI50 (PC-3): 4.46 µM; TGI (PC-3): 16.6 µM; GI50 (MCF7): 1.47 µM; TGI (MCF7): 3.12 µM; CC50 (MCF7): 6.61 µM; GI50 (HS 578T): 15.8 µM; TGI (HS 578T): 40.1 µM; CC50 (HS 578T): > 100 µM
N=c1[nH]c(=O)c2ncn([C@@H]3O[C@H](CO)[C@@H](O)[C@H]3O)c2c(=O)[nH]1 [Compound 14-1, 6-Imino-6H-1-β-D-ribofuranosyl-4,5,7,8-tetrahydroimidazo[4,5-e][1,3]diazepine-4,8-dione]	96 ± 7%	89 ± 9%	75 ± 4%	50 ± 5 %	67 ± 6%	no antiviral activity	no antiviral activity	no antiviral activity	no antiviral activity	no antiviral activity	no antiviral activity				> 100 µM	>100 µM	> 100 µM				GI50 (K-562): > 100 µM; TGI (K-562): >100 µM; CC50 (K-562): > 100 µM; GI50 (MOLT-4): > 100 µM; TGI (MOLT-4): >100 µM; CC50 (MOLT-4): > 100 µM; TGI (RXF 393): >100 µM; CC50 (RXF 393): > 100 µM
